Test results: ChEMBL document CHEMBL4311992, “Discovery of 3-(((9H-purin-6-yl)amino)methyl)-4,6-dimethylpyridin-2(1H)-one derivatives as novel tubulin polymerization inhibitors for treatment of cancer” (Eur J Med Chem, 2019)

Legend:
[1] = molecular target: CDK17/Cyclin-Y (Homo sapiens) (UniProt Q00537+Q8ND76); assay: Inhibition of human CDK17/cyclinY assessed as residual activity at 10 uM using PKSPKARKKL as substrate measured after 120 mins in presence of [gamma33P]ATP by scintillation counting method; format: protein-complex assay
[2] = molecular target: Calcium/calmodulin-dependent protein kinase type 1D (Homo sapiens) (UniProt Q8IU85); assay: Inhibition of recombinant full-length human CaMK1delta assessed as residual activity at 10 uM using calmodulin as substrate measured after 40 mins in presence of [gamma33P]ATP by scintillation counting method
[3] = molecular target: Homeodomain-interacting protein kinase 3 (Homo sapiens) (UniProt Q9H422); assay: Inhibition of recombinant human HIPK3 (161 to 562 residues) assessed as residual activity at 10 uM using myelin basic protein as substrate measured after 40 mins in presence of [gamma33P]ATP by scintillation counting method
Chain of Homeodomain-interacting protein kinase 3 (Homo sapiens) (Q9H422 whole entry, looked up, the tested form may be a part): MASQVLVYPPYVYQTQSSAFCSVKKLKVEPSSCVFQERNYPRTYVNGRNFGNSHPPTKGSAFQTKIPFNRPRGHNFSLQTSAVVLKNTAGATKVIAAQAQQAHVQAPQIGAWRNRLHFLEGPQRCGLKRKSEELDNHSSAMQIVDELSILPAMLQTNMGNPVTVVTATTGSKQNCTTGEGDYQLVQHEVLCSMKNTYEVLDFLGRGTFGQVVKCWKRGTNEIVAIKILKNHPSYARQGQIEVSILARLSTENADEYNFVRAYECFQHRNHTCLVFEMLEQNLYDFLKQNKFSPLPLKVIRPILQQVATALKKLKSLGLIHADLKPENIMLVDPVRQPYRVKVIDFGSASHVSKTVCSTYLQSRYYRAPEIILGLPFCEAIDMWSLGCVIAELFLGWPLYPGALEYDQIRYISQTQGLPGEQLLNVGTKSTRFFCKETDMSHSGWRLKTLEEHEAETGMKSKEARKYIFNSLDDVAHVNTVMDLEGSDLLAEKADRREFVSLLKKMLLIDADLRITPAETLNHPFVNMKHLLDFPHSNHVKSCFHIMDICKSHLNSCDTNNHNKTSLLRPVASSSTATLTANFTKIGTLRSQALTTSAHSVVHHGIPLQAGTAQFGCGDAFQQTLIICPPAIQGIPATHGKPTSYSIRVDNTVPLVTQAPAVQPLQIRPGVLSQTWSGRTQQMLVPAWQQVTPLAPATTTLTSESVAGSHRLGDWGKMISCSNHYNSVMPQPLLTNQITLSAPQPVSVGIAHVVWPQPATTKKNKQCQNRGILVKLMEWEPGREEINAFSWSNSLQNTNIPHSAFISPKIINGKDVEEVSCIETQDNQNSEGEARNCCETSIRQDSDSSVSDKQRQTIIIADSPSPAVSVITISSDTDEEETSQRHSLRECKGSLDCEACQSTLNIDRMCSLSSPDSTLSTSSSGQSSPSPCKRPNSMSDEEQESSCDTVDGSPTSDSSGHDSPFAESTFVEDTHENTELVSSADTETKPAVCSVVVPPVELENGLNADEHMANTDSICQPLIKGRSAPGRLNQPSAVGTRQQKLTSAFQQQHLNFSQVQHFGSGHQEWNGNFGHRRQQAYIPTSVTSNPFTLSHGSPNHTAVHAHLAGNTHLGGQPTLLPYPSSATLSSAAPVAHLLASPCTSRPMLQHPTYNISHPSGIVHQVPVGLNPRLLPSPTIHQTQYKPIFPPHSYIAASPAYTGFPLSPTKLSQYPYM

[4] = system: Epidermal growth factor receptor (Homo sapiens), P00533 [T790M]; assay: Inhibition of recombinant human EGFR T790M mutant (696 to end residues) assessed as residual activity at 10 uM using GGMEDIYFEFMGGKKK as substrate measured after 40 mins in presence of [gamma33P]ATP by scintillation counting method
[5] = system: Serine/threonine-protein kinase Sgk1 (Homo sapiens), O00141 [S422D]; assay: Inhibition of recombinant human SGK S422D mutant (60 to end residues) assessed as residual activity at 10 uM using GRPRTSSFAEGKK as substrate measured after 40 mins in presence of [gamma33P]ATP by scintillation counting method
Chain of Serine/threonine-protein kinase Sgk1 (Homo sapiens), O00141 [S422D] (O00141 whole entry S422D): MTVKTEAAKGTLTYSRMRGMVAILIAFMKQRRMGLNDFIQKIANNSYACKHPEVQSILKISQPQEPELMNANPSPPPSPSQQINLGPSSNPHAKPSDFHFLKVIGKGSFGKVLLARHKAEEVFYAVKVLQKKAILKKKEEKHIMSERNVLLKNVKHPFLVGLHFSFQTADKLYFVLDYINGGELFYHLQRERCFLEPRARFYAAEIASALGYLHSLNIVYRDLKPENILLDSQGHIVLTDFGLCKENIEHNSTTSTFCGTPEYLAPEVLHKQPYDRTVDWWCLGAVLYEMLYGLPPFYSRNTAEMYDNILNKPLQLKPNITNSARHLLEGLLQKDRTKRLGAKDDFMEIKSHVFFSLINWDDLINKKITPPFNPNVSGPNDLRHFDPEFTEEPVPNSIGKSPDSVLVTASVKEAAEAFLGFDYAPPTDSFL

[6] = molecular target: Mitogen-activated protein kinase 1 (Mus musculus) (UniProt P63085); assay: Inhibition of mouse MAPK2 assessed as residual activity at 10 uM
[7] = molecular target: Histone-lysine N-methyltransferase EZH2 (Homo sapiens) (UniProt Q15910); assay: Inhibition of EZH2 (unknown origin) at 10 uM relative to control
[8] = molecular target: Receptor-interacting serine/threonine-protein kinase 1 (Homo sapiens) (UniProt Q13546); assay: Inhibition of human RIPK1 (8 to 322 residues) using myelin basic protein as substrate measured after 120 mins in presence of [gamma33P]ATP by scintillation counting method; parameters: scale not given: the % may be the effect or the level left
Chain of Receptor-interacting serine/threonine-protein kinase 1 (Homo sapiens) (Q13546 whole entry, the tested form may be a part): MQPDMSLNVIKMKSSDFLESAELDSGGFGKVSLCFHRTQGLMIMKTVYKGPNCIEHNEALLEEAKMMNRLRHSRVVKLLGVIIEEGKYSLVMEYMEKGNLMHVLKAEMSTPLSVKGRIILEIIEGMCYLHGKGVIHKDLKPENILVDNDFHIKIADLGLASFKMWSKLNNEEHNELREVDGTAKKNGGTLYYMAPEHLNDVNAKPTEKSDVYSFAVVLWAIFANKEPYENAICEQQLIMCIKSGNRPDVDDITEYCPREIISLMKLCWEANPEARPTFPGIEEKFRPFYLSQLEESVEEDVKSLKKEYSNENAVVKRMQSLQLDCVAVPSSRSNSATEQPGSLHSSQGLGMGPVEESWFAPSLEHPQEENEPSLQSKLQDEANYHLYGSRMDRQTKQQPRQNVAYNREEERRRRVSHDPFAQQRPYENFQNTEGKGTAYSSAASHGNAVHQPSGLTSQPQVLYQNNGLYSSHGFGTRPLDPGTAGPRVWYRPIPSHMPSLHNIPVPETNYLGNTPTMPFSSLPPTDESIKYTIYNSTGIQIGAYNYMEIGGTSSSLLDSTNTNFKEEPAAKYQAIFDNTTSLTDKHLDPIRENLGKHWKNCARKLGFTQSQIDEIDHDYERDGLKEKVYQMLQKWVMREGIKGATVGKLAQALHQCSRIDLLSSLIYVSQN

[9] = molecular target: STE20-like serine/threonine-protein kinase (Homo sapiens) (UniProt Q9H2G2); assay: Inhibition of human SLK (1 to 373 residues) using RLGRDKYKTLRQIRQ as substrate measured after 40 mins in presence of [gamma33P]ATP by scintillation counting method; parameters: scale not given: the % may be the effect or the level left
[10] = molecular target: Tyrosine-protein kinase Srms (Homo sapiens) (UniProt Q9H3Y6); assay: Inhibition of human SRMS assessed as residual activity at 10 uM by radiometric method
Chain of Tyrosine-protein kinase Srms (Homo sapiens) (Q9H3Y6 whole entry): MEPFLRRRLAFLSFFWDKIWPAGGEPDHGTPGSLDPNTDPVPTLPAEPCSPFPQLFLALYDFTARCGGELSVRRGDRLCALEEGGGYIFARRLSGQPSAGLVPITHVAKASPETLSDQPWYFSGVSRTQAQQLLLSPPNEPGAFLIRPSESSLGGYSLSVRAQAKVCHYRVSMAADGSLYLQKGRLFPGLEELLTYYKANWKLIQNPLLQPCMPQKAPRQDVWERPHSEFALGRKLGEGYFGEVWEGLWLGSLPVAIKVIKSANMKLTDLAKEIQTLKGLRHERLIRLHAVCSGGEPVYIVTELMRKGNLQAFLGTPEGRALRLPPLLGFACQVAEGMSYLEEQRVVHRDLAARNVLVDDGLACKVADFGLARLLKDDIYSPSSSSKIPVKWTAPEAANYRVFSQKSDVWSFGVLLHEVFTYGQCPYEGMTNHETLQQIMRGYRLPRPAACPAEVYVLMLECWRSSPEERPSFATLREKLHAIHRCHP

[11] = molecular target: Serine/threonine-protein kinase Nek6 (Homo sapiens) (UniProt Q9HC98); assay: Inhibition of recombinant human NEK6 (2 to end residues) assessed as residual activity at 10 uM using FLAKSFGSPNRAYKK as substrate measured after 40 mins in presence of [gamma33P]ATP by scintillation counting method
[12] = molecular target: High affinity nerve growth factor receptor (Homo sapiens) (UniProt P04629); assay: Inhibition of human TrkA (440 to end residues) using KKKSPGEYVNIEFG as substrate measured after 40 mins in presence of [gamma33P]ATP by scintillation counting method; parameters: scale not given: the % may be the effect or the level left
[13] = molecular target: Rhodopsin kinase GRK1 (Homo sapiens) (UniProt Q15835); assay: Inhibition of recombinant full-length human GRK1 assessed as residual activity at 10 uM using KKKKERLLDDRHDSGLDSMKDEE as substrate measured after 40 mins in presence of [gamma33P]ATP by scintillation counting method
Chain of Rhodopsin kinase GRK1 (Homo sapiens) (Q15835 whole entry): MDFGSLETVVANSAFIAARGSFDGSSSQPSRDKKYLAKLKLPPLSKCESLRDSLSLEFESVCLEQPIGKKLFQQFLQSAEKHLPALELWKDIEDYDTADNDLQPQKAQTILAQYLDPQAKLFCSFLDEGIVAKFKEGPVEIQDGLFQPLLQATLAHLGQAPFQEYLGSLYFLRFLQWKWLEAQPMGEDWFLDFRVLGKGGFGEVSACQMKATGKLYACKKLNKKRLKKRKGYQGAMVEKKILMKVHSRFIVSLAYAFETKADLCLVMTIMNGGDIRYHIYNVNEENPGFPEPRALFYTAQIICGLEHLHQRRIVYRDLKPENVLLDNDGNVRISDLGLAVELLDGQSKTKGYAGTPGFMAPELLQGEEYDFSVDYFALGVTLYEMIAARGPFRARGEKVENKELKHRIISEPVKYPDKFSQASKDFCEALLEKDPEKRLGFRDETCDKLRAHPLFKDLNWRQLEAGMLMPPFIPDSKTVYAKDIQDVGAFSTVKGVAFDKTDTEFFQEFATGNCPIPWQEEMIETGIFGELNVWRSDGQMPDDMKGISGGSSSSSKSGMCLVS

[14] = molecular target: Serine/threonine-protein kinase N2 (Homo sapiens) (UniProt Q16513); assay: Inhibition of human PRK2 (501 to end residues) using AKRRRLSSLRA as substrate measured after 40 mins in presence of [gamma33P]ATP by scintillation counting method; parameters: scale not given: the % may be the effect or the level left
Chain of Serine/threonine-protein kinase N2 (Homo sapiens) (Q16513 whole entry, looked up): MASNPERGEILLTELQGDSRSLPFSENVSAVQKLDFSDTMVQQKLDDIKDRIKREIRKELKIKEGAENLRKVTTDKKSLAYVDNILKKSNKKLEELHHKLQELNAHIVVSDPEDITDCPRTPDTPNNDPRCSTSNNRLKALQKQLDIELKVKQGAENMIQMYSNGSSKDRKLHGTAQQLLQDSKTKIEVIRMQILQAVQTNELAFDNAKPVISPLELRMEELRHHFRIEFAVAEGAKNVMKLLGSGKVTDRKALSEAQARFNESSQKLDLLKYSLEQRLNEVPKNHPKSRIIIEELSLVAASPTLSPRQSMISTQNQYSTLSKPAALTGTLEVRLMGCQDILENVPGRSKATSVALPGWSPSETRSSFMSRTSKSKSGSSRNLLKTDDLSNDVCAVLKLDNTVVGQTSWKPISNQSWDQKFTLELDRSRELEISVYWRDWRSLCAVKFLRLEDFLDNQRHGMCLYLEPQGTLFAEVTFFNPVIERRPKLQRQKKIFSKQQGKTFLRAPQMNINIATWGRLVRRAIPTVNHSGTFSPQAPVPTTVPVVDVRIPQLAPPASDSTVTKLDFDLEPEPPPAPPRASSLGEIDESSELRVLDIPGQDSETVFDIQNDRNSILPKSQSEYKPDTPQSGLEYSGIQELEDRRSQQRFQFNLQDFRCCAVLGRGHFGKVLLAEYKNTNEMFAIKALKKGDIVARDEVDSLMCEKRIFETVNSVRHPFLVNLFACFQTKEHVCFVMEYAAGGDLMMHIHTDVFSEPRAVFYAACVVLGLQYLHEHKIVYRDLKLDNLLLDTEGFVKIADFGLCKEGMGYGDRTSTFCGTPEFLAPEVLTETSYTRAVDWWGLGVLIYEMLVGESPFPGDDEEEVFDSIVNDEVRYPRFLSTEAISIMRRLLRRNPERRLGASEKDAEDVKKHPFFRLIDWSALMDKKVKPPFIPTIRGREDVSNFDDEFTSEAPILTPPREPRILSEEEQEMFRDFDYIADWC

[15] = molecular target: NUAK family SNF1-like kinase 2 (Homo sapiens) (UniProt Q9H093); assay: Inhibition of recombinant full-length human NUAK2 assessed as residual activity at 10 uM using KKKVSRSGLYRSPSMPENLNRPR as substrate measured after 40 mins in presence of [gamma33P]ATP by scintillation counting method
[16] = molecular target: Calcium/calmodulin-dependent protein kinase type IV (Homo sapiens) (UniProt Q16566); assay: Inhibition of recombinant full-length human CaMK4 assessed as residual activity at 10 uM using calmodulin as substrate measured after 40 mins in presence of [gamma33P]ATP by scintillation counting method
[17] = molecular target: Dual specificity protein kinase CLK4 (Homo sapiens) (UniProt Q9HAZ1); assay: Inhibition of recombinant human CLK4 (128 to end residues) assessed as residual activity at 10 uM using YRRAAVPPSPSLSRHSSPHQS(p)EDEEE as substrate measured after 40 mins in presence of [gamma33P]ATP by scintillation counting method
A549 = assay: cells; conditions: Homo sapiens, A549, 72 h
Description: Antiproliferative activity against human A549 cells after 72 hrs by MTT assay

[18] = Toxicity in nude BALB/c mouse assessed as change in cholesterol level at 40 to 80 mg/kg, po once daily for 4 weeks measured post-last dose; format: organism-based; conditions: in vivo, 672 h
[19] = molecular target: Serine/threonine-protein kinase NIM1 (Homo sapiens) (UniProt Q8IY84); assay: Inhibition of recombinant full-length human NIM1 assessed as residual activity at 10 uM using KKKVSRSGLYRSPSMPENLNRPR as substrate measured after 40 mins in presence of [gamma33P]ATP by scintillation counting method
[20] = molecular target: Leucine-rich repeat serine/threonine-protein kinase 2 (Homo sapiens) (UniProt Q5S007); assay: Inhibition of recombinant human LRRK2 (970 to end residues) assessed as residual activity at 10 uM using RLGRDKYKTLRQIRQ as substrate measured after 40 mins in presence of [gamma33P]ATP by scintillation counting method
[21] = Renal toxicity in nude BALB/c mouse at 80 mg/kg, po administered once daily for 4 weeks measured post-last dose by hematoxylin and eosin staining-based assay; format: organism-based; conditions: in vivo, 672 h
[22] = molecular target: MAPK/MAK/MRK overlapping kinase (Homo sapiens) (UniProt Q9UQ07); assay: Inhibition of recombinant human MOK (1 to 343 residues) assessed as residual activity at 10 uM using RSRSRSRSRSRSRSR as substrate measured after 40 mins in presence of [gamma33P]ATP by scintillation counting method
[23] = system: Serine/threonine-protein kinase Sgk2 (Homo sapiens), Q9HBY8 [S416D]; assay: Inhibition of recombinant human SGK2 S416D mutant (54 to end residues) assessed as residual activity at 10 uM using GRPRTSSFAEGKK as substrate measured after 40 mins in presence of [gamma33P]ATP by scintillation counting method
Chain of Serine/threonine-protein kinase Sgk2 (Homo sapiens), Q9HBY8 [S416D] (Q9HBY8 1-367 with tags or gaps S416D): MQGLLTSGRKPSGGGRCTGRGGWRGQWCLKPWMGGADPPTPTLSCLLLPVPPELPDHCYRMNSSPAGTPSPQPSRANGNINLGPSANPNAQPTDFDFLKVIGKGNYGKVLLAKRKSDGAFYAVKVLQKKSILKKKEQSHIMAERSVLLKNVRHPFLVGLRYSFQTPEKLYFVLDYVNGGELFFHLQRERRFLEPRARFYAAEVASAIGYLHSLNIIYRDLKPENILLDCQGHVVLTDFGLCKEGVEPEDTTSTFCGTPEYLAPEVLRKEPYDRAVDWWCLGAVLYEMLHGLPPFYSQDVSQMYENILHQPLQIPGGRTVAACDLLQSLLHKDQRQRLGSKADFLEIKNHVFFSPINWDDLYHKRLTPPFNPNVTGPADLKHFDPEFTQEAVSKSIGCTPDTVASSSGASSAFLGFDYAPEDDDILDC

[24] = Toxicity in nude BALB/c mouse assessed as change in RBC level at 40 to 80 mg/kg, po once daily for 4 weeks measured post-last dose; format: organism-based; conditions: in vivo, 672 h

With `Cc1cc(C)c(CNc2nc(Cl)nc3c2ncn3C2CCCC2)c(=O)[nH]1` the Activity [1] was 102%, the Activity [2] was 107% and the Activity [3] was 106%. For the same molecule, the Activity [4] was 102%, the Activity [5] was 136% and the Activity [6] was 97.5%. For the same molecule, the inhibition [7] was -9%, the Activity [8] was 92% and the Activity [9] was 95.5%. It also gave an Activity [10] of 108%, an Activity [11] of 108% and an Activity [12] of 92%. For the same molecule, the Activity [13] was 90.5%, the Activity [14] was 116% and the Activity [15] was 114%. For the same molecule, the Activity [16] was 121%, the Activity [17] was 98.5% and the IC50 (A549) was 100 nM. For the same molecule, the Activity [18] was “Non-Toxic”, the Activity [19] was 106% and the Activity [20] was 100%. For the same molecule, the Activity [21] was “Non-Toxic”, the Activity [22] was 104% and the Activity [23] was 112%. The Activity [24] was “Non-Toxic”.
